Laboratory results from the supplement of paper PMC10307832.

Experiments:
Assay in all cases: relative viability (nuclei count vs DMSO), 5 days (fraction); higher = more cells survive
Ispinesib = compound: Cc1ccc(C(=O)N(CCCN)[C@@H](c2nc3cc(Cl)ccc3c(=O)n2Cc2ccccc2)C(C)C)cc1 [Ispinesib]
In short: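 On vehicle-anchored 1536-well plates, lung cancer cell lines held overnight at 37 °C were pinned with five library-drug doses (not always all listed) spaced by √10. With no medium change over 5 days, they were then fixed, permeabilised and Hoechst-stained in one step and imaged at 4×. MetaXpress counted nuclei, and viability is the median across plates of treated-well over vehicle-well nuclei. Acceptance needed control CV below 25% and at least one doubling.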

Linsitinib + Phenformin = compound: C[C@]1(O)C[C@@H](c2nc(-c3ccc4ccc(-c5ccccc5)nc4c3)c3c(N)nccn32)C1 [Linsitinib] + N=C(N)NC(=N)NCCc1ccccc1 [Phenformin] (partner 250 µM)
In short: (§1)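 Five library-drug doses in √10 steps were combined with a fixed anchor-drug dose, or a single drug was given alone, by pin tool to lung cancer cell lines in 1536-well plates the day after seeding. Nuclei were stained and counted after 5 days. Relative viability is the nuclei count in treated wells over that in vehicle wells, taken as the median of duplicate plates.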

Ispinesib + Lapatinib = compound: Cc1ccc(C(=O)N(CCCN)[C@@H](c2nc3cc(Cl)ccc3c(=O)n2Cc2ccccc2)C(C)C)cc1 [Ispinesib] + CS(=O)(=O)CCNCc1ccc(-c2ccc3ncnc(Nc4ccc(OCc5cccc(F)c5)c(Cl)c4)c3c2)o1 [Lapatinib] (partner 2 µM)
In short: as §1

Ispinesib + Tozasertib = compound: Cc1ccc(C(=O)N(CCCN)[C@@H](c2nc3cc(Cl)ccc3c(=O)n2Cc2ccccc2)C(C)C)cc1 [Ispinesib] + Cc1cc(Nc2cc(N3CCN(C)CC3)nc(Sc3ccc(NC(=O)C4CC4)cc3)n2)n[nH]1 [Tozasertib] (partner 0.1 µM)
In short: as §1

Cell Line | relative viability (Ispinesib; 0.001 µM) | relative viability (Ispinesib; 0.003162 µM) | relative viability (Ispinesib; 0.01 µM) | relative viability (Ispinesib; 0.03162 µM) | relative viability (Ispinesib; 0.1 µM) | relative viability (Linsitinib + Phenformin; first compound 0.01 µM) | relative viability (Linsitinib + Phenformin; first compound 0.03162 µM) | relative viability (Linsitinib + Phenformin; first compound 0.1 µM) | relative viability (Linsitinib + Phenformin; first compound 0.3162 µM) | relative viability (Linsitinib + Phenformin; first compound 1 µM) | relative viability (Ispinesib + Lapatinib; first compound 0.001 µM) | relative viability (Ispinesib + Lapatinib; first compound 0.003162 µM) | relative viability (Ispinesib + Lapatinib; first compound 0.01 µM) | relative viability (Ispinesib + Lapatinib; first compound 0.03162 µM) | relative viability (Ispinesib + Lapatinib; first compound 0.1 µM) | relative viability (Ispinesib + Tozasertib; first compound 0.001 µM) | relative viability (Ispinesib + Tozasertib; first compound 0.003162 µM) | relative viability (Ispinesib + Tozasertib; first compound 0.01 µM) | relative viability (Ispinesib + Tozasertib; first compound 0.03162 µM) | relative viability (Ispinesib + Tozasertib; first compound 0.1 µM)
LK-2 | 1.13 | 1.19 | 1.17 | 0.705 | 0.348 | 0.41 | 0.498 | 0.515 | 0.201 | 0.187 | 1.07 | 1.07 | 0.908 | 0.681 | 0.313 | 0.159 | 0.175 | 0.183 | 0.158 | 0.158
LOU-NH91 | 0.962 | 1.09 | 1.05 | 0.646 | 0.287 | 0.739 | 0.714 | 0.722 | 0.651 | 0.632 | 0.785 | 0.799 | 0.779 | 0.447 | 0.271 | 0.677 | 0.638 | 0.76 | 0.584 | 0.347
LU99A | 0.976 | 1.01 | 1.03 | 0.303 | 0.269 | 0.919 | 0.848 | 0.781 | 0.475 | 0.555 | 0.992 | 1.11 | 1.14 | 0.192 | 0.201 | 0.261 | 0.282 | 0.29 | 0.262 | 0.273
LXF-289 | 0.98 | 1.02 | 1.13 | 0.773 | 0.178 | 0.5 | 0.448 | 0.523 | – | 0.471 | 0.872 | 0.909 | 1.01 | 0.634 | 0.118 | 0.235 | 0.171 | 0.175 | 0.151 | 0.152
NCI-H23 | 0.859 | 1.06 | 1.04 | 0.298 | 0.226 | 0.821 | 0.863 | 0.764 | 0.53 | 0.503 | 0.915 | 1.16 | 1.04 | 0.245 | 0.293 | 0.428 | 0.414 | 0.74 | 0.33 | 0.272
NCI-H322M | 1.13 | 0.945 | 0.914 | 0.472 | 0.58 | 0.832 | 0.765 | 0.814 | 0.545 | 0.552 | 0.654 | 0.585 | 0.616 | 0.438 | 0.319 | 0.531 | 0.275 | 0.445 | 0.333 | 0.396
NCI-H358 | 1.15 | 1 | 1 | 0.528 | 0.313 | 0.304 | 0.273 | 0.306 | 0.228 | 0.207 | 0.475 | 0.421 | 0.473 | 0.345 | 0.215 | 0.1 | 0.101 | 0.0892 | 0.116 | 0.0906
NCI-H460 | 1.03 | 1.03 | 1.14 | 0.935 | 0.0826 | 0.511 | 0.44 | 0.521 | 0.394 | 0.342 | 1.1 | 1.23 | 1.39 | 0.335 | 0.0345 | 0.4 | 0.577 | 0.503 | 0.417 | 0.0671
NCI-H520 | 0.977 | 0.997 | 0.903 | 0.341 | 0.251 | 0.567 | 0.53 | 0.607 | – | 0.547 | 0.996 | 0.825 | 0.322 | 0.217 | 0.261 | 0.419 | 0.466 | 0.41 | 0.499 | 0.422
NCI-H596 | 0.993 | 0.933 | 1.03 | 0.999 | 0.444 | 0.721 | 0.638 | 0.678 | 0.774 | 0.833 | 0.978 | 1.18 | 1.02 | 0.897 | 0.402 | 0.956 | 0.86 | 0.916 | 0.945 | 0.432
NCI-H647 | 0.995 | 1.05 | 1.18 | 0.188 | 0.153 | 0.524 | 0.464 | 0.537 | – | 0.438 | 1.28 | 0.693 | 0.481 | 0.106 | 0.114 | 0.323 | 0.201 | 0.0519 | 0.217 | 0.303
NCI-H650 | 1.01 | 1.14 | 1.02 | 0.629 | 0.212 | 0.443 | 0.484 | 0.432 | 0.337 | 0.364 | 0.89 | 1.17 | 0.638 | 0.34 | 0.23 | 0.738 | 0.712 | 0.77 | 0.742 | 0.426
NCI-H661 | 0.968 | 0.983 | 0.993 | 0.742 | 0.289 | 0.291 | 0.221 | 0.268 | 0.293 | 0.255 | 0.52 | 0.451 | 0.444 | 0.406 | 0.439 | 0.355 | 0.396 | 0.384 | 0.379 | 0.369
NCI-H727 | 1.16 | 1.09 | 1.14 | 0.845 | 0.543 | 0.562 | 0.489 | 0.483 | 0.503 | 0.422 | – | 0.81 | 0.809 | 0.426 | 0.29 | 0.598 | 0.556 | 0.647 | 0.621 | 0.668
NCI-H838 | 1.05 | 1.03 | 1.08 | 0.747 | 0.343 | 0.528 | 0.487 | 0.462 | – | 0.395 | 1.08 | 1.09 | 1.31 | 0.183 | 0.26 | 0.275 | 0.285 | 0.284 | 0.287 | 0.257
NCI-H1355 | 1.08 | 1.06 | 1.09 | 0.728 | 0.274 | 0.452 | 0.447 | 0.393 | 0.32 | 0.304 | 1.09 | 0.93 | 1.22 | 0.644 | 0.3 | 0.566 | 0.608 | 0.548 | 0.503 | 0.486
